Test results as given in publication PMC12862769 (ACS infectious diseases, 2025).
Converted amounts (≈) assume the structure as drawn. Where two headings read alike, the source gives them in different places.

Key:
[1] = tested on: E. hirae ATCC 10541; experiment: MIC assay; assay type: cell-based
[2] = tested on: E. faecalis and E. faecium strains; experiment: MIC assay, panel of 25 E. faecalis and E. faecium strains; assay type: cell-based; conditions: ambient air
[3] = tested on: E. faecalis HM-334; conditions: cited from earlier work
[4] = tested on: E. faecium HM-965; experiment: MIC assay; assay type: cell-based
[5] = tested on: E. faecium HM-952; experiment: MIC assay; assay type: cell-based
[6] = tested on: Staphylococcus epidermidis NRS101; experiment: MIC assay; assay type: cell-based; conditions: no CAs, expresses MpsAB homologs
[7] = tested on: E. faecium NR-31909; experiment: MIC assay; assay type: cell-based
[8] = tested on: E. casseliflavus ATCC 700327; experiment: MIC assay; assay type: cell-based
[9] = tested on: α-Carbonic anhydrase (Q3XYE8); conditions: lysates pre-incubated with 100 μM free inhibitor, compared to Biotin-AZM; α-CA
[10] = tested on: E. faecium NR-31912; experiment: MIC assay; assay type: cell-based
[11] = tested on: E. faecium NR-32053; experiment: MIC assay; assay type: cell-based
[12] = tested on: E. faecium HM-968; conditions: cited from earlier work
[13] = tested on: E. faecium NR-31937; experiment: MIC assay; assay type: cell-based
[14] = tested on: E. gallinarum ATCC 49373; experiment: MIC assay; assay type: cell-based
[15] = tested on: E. faecalis NR-31971; conditions: cited from earlier work
[16] = tested on: E. faecium NR-28978; conditions: cited from earlier work
[17] = tested on: E. faecalis NR-31970; experiment: MIC assay; assay type: cell-based
[18] = tested on: E. faecium NR-32052; conditions: cited from earlier work
[19] = tested on: E. avium ATCC 14025; experiment: MIC assay; assay type: cell-based
[20] = tested on: E. faecalis NR-31972; conditions: cited from earlier work
[21] = tested on: Bacillus subtilis ATCC11774; experiment: MIC assay; assay type: cell-based; conditions: encodes both MpsAB and CAs
[22] = tested on: E. durans ATCC 11576; experiment: MIC assay; assay type: cell-based
[23] = tested on: Staphylococcus aureus USA300; experiment: MIC assay; assay type: cell-based; conditions: no CAs, expresses MpsAB homologs
[24] = tested on: E. faecium HM-970; experiment: MIC assay; assay type: cell-based
[25] = tested on: E. faecium NR-32065; conditions: cited from earlier work
[26] = tested on: E. faecalis HM-934; experiment: MIC assay; assay type: cell-based
[27] = tested on: E. faecium NR-31914; conditions: cited from earlier work
[28] = tested on: E. faecalis HM-201; experiment: MIC assay; assay type: cell-based
[29] = tested on: Listeria Monocytogenes ATCC 19111; experiment: MIC assay; assay type: cell-based; conditions: encodes only α-CA, no MpsAB homologs
[30] = tested on: E. faecalis HM-335; conditions: cited from earlier work
[31] = tested on: E. faecium NR-31954; experiment: MIC assay; assay type: cell-based
[32] = tested on: E. faecium NR-31933; experiment: MIC assay; assay type: cell-based
[33] = tested on: E. raffinosus ATCC 49464; experiment: MIC assay; assay type: cell-based
[34] = tested on: all tested Enterococcus strains; experiment: MIC assay, all tested Enterococcus strains; assay type: cell-based
[35] = tested on: E. faecium ATCC 700221; experiment: MIC assay; assay type: cell-based
[36] = tested on: E. faecium NR-31903; conditions: cited from earlier work
[37] = tested on: E. faecium NR-31909; experiment: E. faecium septicemic peritonitis mouse model; assay type: in vivo, BALB/c mice
[38] = tested on: E. faecium NR-31916; conditions: cited from earlier work
[39] = tested on: E. faecium NR-32094; experiment: MIC assay; assay type: cell-based
[40] = tested on: E. faecium α-CA; experiment: in vitro inhibition of bacterial α-CA; assay type: biochemical
[41] = tested on: E. saccharolyticus ATCC 43076; experiment: MIC assay; assay type: cell-based

## CC(=O)Nc1nnc(S(N)(=O)=O)s1 [AZM, acetazolamide]
[1]; 5% CO2 atmosphere at 37° C
  MIC: > 288 µM
[1]; ambient air at 37° C
  MIC: 36.0 µM (≈ 8 µg/mL)
[2]; inhibited 50% of the tested E. faecalis and E. faecium strains
  Ef MIC50: 9.01 µM
[2]; inhibited 90% of the tested E. faecalis and E. faecium strains
  Ef MIC90: 18 µM
[3]; 5% CO2 atmosphere at 37° C
  MIC: > 288 µM
[3]; ambient air at 37° C
  MIC: 9.01 µM (≈ 2 µg/mL)
[4]; 5% CO2 atmosphere at 37° C
  MIC: > 288 µM
[4]; ambient air at 37° C
  MIC: 4.50 µM (≈ 1 µg/mL)
[5]; 5% CO2 atmosphere at 37° C
  MIC: > 288 µM
[5]; ambient air at 37° C
  MIC: 9.01 µM (≈ 2 µg/mL)
[6]; 5% CO2 atmosphere at 37° C
  MIC: >500 µM
[6]; ambient air at 37° C
  MIC: >500 µM
[7]; 5% CO2 atmosphere at 37° C
  MIC: > 288 µM
[7]; ambient air at 37° C
  MIC: 9.01 µM (≈ 2 µg/mL)
[8]; 5% CO2 atmosphere at 37° C
  MIC: > 288 µM
[8]; ambient air at 37° C
  MIC: 72.0 µM (≈ 16 µg/mL)
[9]
  Log2 (FC): −7.88
[10]; 5% CO2 atmosphere at 37° C
  MIC: > 288 µM
[10]; ambient air at 37° C
  MIC: 9.01 µM (≈ 2 µg/mL)
[11]; 5% CO2 atmosphere at 37° C
  MIC: > 288 µM
[11]; ambient air at 37° C
  MIC: 4.50 µM (≈ 1 µg/mL)
[12]; 5% CO2 atmosphere at 37° C
  MIC: > 288 µM
[12]; ambient air at 37° C
  MIC: 9.01 µM (≈ 2 µg/mL)
[13]; 5% CO2 atmosphere at 37° C
  MIC: > 288 µM
[13]; ambient air at 37° C
  MIC: 9.01 µM (≈ 2 µg/mL)
[14]; 5% CO2 atmosphere at 37° C
  MIC: > 288 µM
[14]; ambient air at 37° C
  MIC: 36.0 µM (≈ 8 µg/mL)
[15]; 5% CO2 atmosphere at 37° C
  MIC: > 288 µM
[15]; ambient air at 37° C
  MIC: 9.01 µM (≈ 2 µg/mL)
[16]; 5% CO2 atmosphere at 37° C
  MIC: > 288 µM
[16]; ambient air at 37° C
  MIC: 9.01 µM (≈ 2 µg/mL)
[17]; 5% CO2 atmosphere at 37° C
  MIC: > 288 µM
[17]; ambient air at 37° C
  MIC: 18.0 µM (≈ 4 µg/mL)
[18]; 5% CO2 atmosphere at 37° C
  MIC: > 288 µM
[18]; ambient air at 37° C
  MIC: 9.01 µM (≈ 2 µg/mL)
[19]; 5% CO2 atmosphere at 37° C
  MIC: > 288 µM
[19]; ambient air at 37° C
  MIC: 72.0 µM (≈ 16 µg/mL)
[20]; 5% CO2 atmosphere at 37° C
  MIC: > 288 µM
[20]; ambient air at 37° C
  MIC: 9.01 µM (≈ 2 µg/mL)
[21]; 5% CO2 atmosphere at 37° C
  MIC: >500 µM
[21]; ambient air at 37° C
  MIC: >500 µM
[22]; 5% CO2 atmosphere at 37° C
  MIC: > 288 µM
[22]; ambient air at 37° C
  MIC: 2.25 µM (≈ 0.5 µg/mL)
[23]; 5% CO2 atmosphere at 37° C
  MIC: >500 µM
[23]; ambient air at 37° C
  MIC: >500 µM
[24]; 5% CO2 atmosphere at 37° C
  MIC: > 288 µM
[24]; ambient air at 37° C
  MIC: 9.01 µM (≈ 2 µg/mL)
[25]; 5% CO2 atmosphere at 37° C
  MIC: > 288 µM
[25]; ambient air at 37° C
  MIC: 4.50 µM (≈ 1 µg/mL)
[26]; 5% CO2 atmosphere at 37° C
  MIC: > 288 µM
[26]; ambient air at 37° C
  MIC: 9.01 µM (≈ 2 µg/mL)
[27]; 5% CO2 atmosphere at 37° C
  MIC: > 288 µM
[27]; ambient air at 37° C
  MIC: 9.01 µM (≈ 2 µg/mL)
[28]; 5% CO2 atmosphere at 37° C
  MIC: > 288 µM
[28]; ambient air at 37° C
  MIC: 18.0 µM (≈ 4 µg/mL)
[29]; 5% CO2 atmosphere at 37° C
  MIC: >500 µM
[29]; ambient air at 37° C
  MIC: 72 µM (≈ 16 µg/mL)
[30]; 5% CO2 atmosphere at 37° C
  MIC: > 288 µM
[30]; ambient air at 37° C
  MIC: 9.01 µM (≈ 2 µg/mL)
[31]; 5% CO2 atmosphere at 37° C
  MIC: > 288 µM
[31]; ambient air at 37° C
  MIC: 36.0 µM (≈ 8 µg/mL)
[32]; 5% CO2 atmosphere at 37° C
  MIC: > 288 µM
[32]; ambient air at 37° C
  MIC: 9.01 µM (≈ 2 µg/mL)
[33]; 5% CO2 atmosphere at 37° C
  MIC: > 288 µM
[33]; ambient air at 37° C
  MIC: 36.0 µM (≈ 8 µg/mL)
[34]; all Enterococcus species, 5% CO2
  MICs in the presence of CO2: > 288 µM
[34]; inhibited 50% of all tested Enterococcus strains, ambient air
  All Enterococci spp. MIC50: 9.01 µM
[34]; inhibited 90% of all tested Enterococcus strains, ambient air
  All Enterococci spp. MIC90: 36.0 µM
[35]; 5% CO2 atmosphere at 37° C
  MIC: > 288 µM
[35]; ambient air at 37° C
  MIC: 9.01 µM (≈ 2 µg/mL)
[36]; 5% CO2 atmosphere at 37° C
  MIC: > 288 µM
[36]; ambient air at 37° C
  MIC: 9.01 µM (≈ 2 µg/mL)
[37]; 20 mg/kg PO once-daily for three days, n = 6/group
  survival (mice rescued): 66.7%
[37]; kidney, liver and spleen, each tissue, 20 mg/kg PO QD three days
  reduction of VRE bioburden compared to vehicle: at least 2 Log10 CFU/mL
[37]; kidney, liver and spleen, three-day treatment
  reduction of VRE bioburden: > 99%
[38]; 5% CO2 atmosphere at 37° C
  MIC: > 288 µM
[38]; ambient air at 37° C
  MIC: 9.01 µM (≈ 2 µg/mL)
[39]; 5% CO2 atmosphere at 37° C
  MIC: > 288 µM
[39]; ambient air at 37° C
  MIC: 9.01 µM (≈ 2 µg/mL)
[40]
  potency against α-CA over γ-CA based on Ki: > 5 fold
[41]; 5% CO2 atmosphere at 37° C
  MIC: > 288 µM
[41]; ambient air at 37° C
  MIC: 4.50 µM (≈ 1 µg/mL)
